Data as given in the supplement of paper PMC10307832.

Assays:
Test in all cases: relative viability (nuclei count vs DMSO), 5 days (fraction); higher = more cells survive
Tozasertib + Alpelisib = compound: Cc1cc(Nc2cc(N3CCN(C)CC3)nc(Sc3ccc(NC(=O)C4CC4)cc3)n2)n[nH]1 [Tozasertib] + Cc1nc(NC(=O)N2CCC[C@H]2C(N)=O)sc1-c1ccnc(C(C)(C)C(F)(F)F)c1 [Alpelisib] (partner 2 µM)
Method in brief: (§1)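 Values are medians from duplicate plates. Each reflects relative viability, defined as the nuclei count of treated wells over that of vehicle wells. Lung cancer cell lines in 1536-well plates were pin-tool dosed one day after seeding with one drug alone or with a fixed anchor-drug dose plus five library-drug doses (not always all listed) in √10 steps, then fixed, stained and imaged at 4× after 5 days.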

Tozasertib + Linsitinib = compound: Cc1cc(Nc2cc(N3CCN(C)CC3)nc(Sc3ccc(NC(=O)C4CC4)cc3)n2)n[nH]1 [Tozasertib] + C[C@]1(O)C[C@@H](c2nc(-c3ccc4ccc(-c5ccccc5)nc4c3)c3c(N)nccn32)C1 [Linsitinib] (partner 1 µM)
Method in brief: as §1

Tozasertib + AZD7762 = compound: Cc1cc(Nc2cc(N3CCN(C)CC3)nc(Sc3ccc(NC(=O)C4CC4)cc3)n2)n[nH]1 [Tozasertib] + NC(=O)Nc1cc(-c2cccc(F)c2)sc1C(=O)N[C@H]1CCCNC1 [AZD7762] (partner 0.2 µM)
Method in brief: as §1

Tozasertib + Lapatinib = compound: Cc1cc(Nc2cc(N3CCN(C)CC3)nc(Sc3ccc(NC(=O)C4CC4)cc3)n2)n[nH]1 [Tozasertib] + CS(=O)(=O)CCNCc1ccc(-c2ccc3ncnc(Nc4ccc(OCc5cccc(F)c5)c(Cl)c4)c3c2)o1 [Lapatinib] (partner 2 µM)
Method in brief: as §1

Tozasertib + Dasatinib = compound: Cc1cc(Nc2cc(N3CCN(C)CC3)nc(Sc3ccc(NC(=O)C4CC4)cc3)n2)n[nH]1 [Tozasertib] + Cc1nc(Nc2ncc(C(=O)Nc3c(C)cccc3Cl)s2)cc(N2CCN(CCO)CC2)n1 [Dasatinib] (partner 0.075 µM)
Method in brief: as §1

Cell Line | relative viability (Tozasertib + Alpelisib; first compound 0.004 µM) | relative viability (Tozasertib + Alpelisib; first compound 0.04 µM) | relative viability (Tozasertib + Alpelisib; first compound 0.1265 µM) | relative viability (Tozasertib + Linsitinib; first compound 0.004 µM) | relative viability (Tozasertib + Linsitinib; first compound 0.01265 µM) | relative viability (Tozasertib + Linsitinib; first compound 0.04 µM) | relative viability (Tozasertib + Linsitinib; first compound 0.1265 µM) | relative viability (Tozasertib + AZD7762; first compound 0.004 µM) | relative viability (Tozasertib + AZD7762; first compound 0.01265 µM) | relative viability (Tozasertib + AZD7762; first compound 0.04 µM) | relative viability (Tozasertib + AZD7762; first compound 0.1265 µM) | relative viability (Tozasertib + Lapatinib; first compound 0.004 µM) | relative viability (Tozasertib + Lapatinib; first compound 0.01265 µM) | relative viability (Tozasertib + Lapatinib; first compound 0.04 µM) | relative viability (Tozasertib + Lapatinib; first compound 0.1265 µM) | relative viability (Tozasertib + Dasatinib; first compound 0.004 µM) | relative viability (Tozasertib + Dasatinib; first compound 0.01265 µM) | relative viability (Tozasertib + Dasatinib; first compound 0.04 µM) | relative viability (Tozasertib + Dasatinib; first compound 0.1265 µM) | relative viability (Tozasertib + Alpelisib; first compound 0.01265 µM)
LK-2 | 1.33 | 1.12 | 0.306 | 0.639 | 0.541 | 0.442 | 0.272 | 0.466 | 0.54 | 0.624 | 0.138 | 1.01 | 0.869 | 1.01 | 0.219 | 0.262 | 0.39 | 0.285 | 0.23 | –
LOU-NH91 | – | 0.731 | 0.694 | 0.573 | 0.954 | 1.03 | 0.947 | 0.733 | 0.719 | 0.838 | 0.64 | 0.789 | 0.742 | 0.803 | 0.638 | – | 0.519 | 0.573 | 0.499 | 0.736
LU99A | 0.648 | 0.463 | 0.267 | 0.655 | 0.448 | 0.412 | 0.292 | 0.314 | 0.328 | 0.306 | 0.169 | 1.07 | 0.749 | 0.742 | 0.467 | 0.751 | 0.513 | 0.547 | 0.373 | 0.507
LXF-289 | – | 0.955 | 0.615 | 0.994 | 0.883 | 0.868 | 0.554 | 1.12 | 1.02 | 1.04 | 0.619 | 0.956 | 0.846 | 0.823 | 0.722 | 0.226 | 0.198 | 0.232 | 0.0943 | 1.05
NCI-H23 | 0.638 | 0.781 | 0.361 | 0.653 | 0.519 | 0.55 | 0.291 | 0.199 | 0.259 | 0.216 | 0.186 | 1.1 | 0.96 | 0.989 | 0.269 | 0.747 | 0.91 | 0.832 | 0.909 | 0.578
NCI-H322M | 0.732 | 0.904 | 0.848 | 0.893 | 0.998 | 0.923 | 0.848 | 0.497 | 0.507 | 0.572 | 0.48 | 0.594 | 0.538 | 0.614 | 0.519 | 0.263 | 0.263 | 0.257 | 0.224 | 0.749
NCI-H358 | 1.08 | 0.83 | 0.182 | 0.787 | 0.69 | 0.651 | 0.194 | 0.393 | – | 0.475 | 0.227 | 0.54 | 0.376 | 0.439 | 0.206 | 0.154 | 0.152 | 0.187 | 0.121 | 0.863
NCI-H460 | 0.544 | 0.449 | 0.293 | 0.738 | 0.751 | 0.787 | 0.149 | 0.548 | 0.657 | 0.737 | – | 0.968 | 0.842 | 1.01 | 0.0247 | 0.546 | 0.546 | 0.62 | 0.318 | 0.435
NCI-H596 | – | 0.519 | 0.439 | 1.08 | 0.979 | 1.15 | 1.03 | – | – | 1.2 | 0.871 | 1.17 | 1.07 | 1.11 | 0.49 | 0.555 | 0.589 | 0.645 | 0.53 | 0.451
NCI-H647 | 1.43 | 1.06 | 0.371 | 0.854 | 1.33 | 1.22 | – | 0.567 | 0.418 | 0.43 | 0.0736 | 1.13 | 0.989 | 0.895 | 0.235 | 0.204 | 0.185 | 0.181 | 0.0838 | 0.915
NCI-H650 | 1.23 | – | – | 0.967 | 0.771 | 0.754 | 0.513 | 0.935 | 1.07 | 0.797 | 1.05 | 1.05 | 0.844 | 0.991 | 0.454 | 0.577 | 0.384 | 0.452 | 0.389 | 1.06
NCI-H727 | 0.739 | 0.639 | 0.482 | 0.258 | 0.287 | 0.368 | 0.236 | 0.446 | 0.481 | 0.716 | 0.455 | 0.959 | – | 0.942 | 0.442 | 0.386 | 0.38 | 0.378 | 0.286 | 0.554
NCI-H838 | 1.15 | 1.12 | 1.03 | 1.07 | 0.972 | 1.15 | 0.861 | 0.881 | 0.971 | 0.925 | – | 1.12 | 0.947 | 1.16 | 0.208 | 0.304 | 0.307 | 0.225 | 0.256 | 0.942
NCI-H1355 | 0.851 | 0.96 | 0.78 | 0.751 | 0.816 | 0.912 | 0.722 | 0.76 | 0.698 | 0.77 | 0.661 | 0.934 | 1.02 | 0.987 | 0.791 | 0.691 | 0.706 | 0.843 | 0.49 | 0.804
NCI-H1395 | 1.15 | 0.914 | 0.753 | 1.57 | 0.974 | 1.16 | 0.75 | 0.385 | 0.414 | 0.389 | 0.397 | 1.29 | 0.818 | 1.04 | 0.572 | 0.423 | 0.343 | 0.438 | 0.357 | 1.04
NCI-H1437 | – | 1.01 | 0.92 | 1.09 | 0.971 | 1 | 0.779 | 1.14 | 1.16 | 1.01 | 1.14 | 0.782 | 0.74 | 0.759 | 0.329 | 0.453 | 0.254 | 0.372 | 0.434 | 0.866
NCI-H1651 | 0.922 | 0.886 | 1.03 | 1.19 | 0.899 | 0.972 | 0.923 | 0.469 | 0.464 | 0.498 | 0.422 | 0.973 | 0.806 | – | 0.392 | 0.433 | 0.371 | – | 0.234 | 1.01
NCI-H1666 | 1.06 | 0.973 | 0.632 | 0.835 | 0.854 | 0.861 | 0.64 | 0.941 | 0.761 | 0.903 | 0.671 | 0.61 | 0.489 | 0.578 | 0.298 | 0.793 | 0.71 | 0.803 | 0.554 | 0.976
NCI-H1734 | 0.656 | – | 0.469 | 0.894 | 0.938 | 0.938 | 0.616 | 0.506 | 0.559 | 0.532 | 0.228 | 1.06 | – | – | 0.497 | 0.422 | 0.444 | 0.452 | 0.314 | 0.64
NCI-H1755 | 0.518 | 0.948 | 0.629 | 0.976 | 0.948 | 0.999 | 0.865 | 0.46 | 0.432 | 0.406 | 0.445 | – | 1.01 | – | 0.882 | 0.44 | 0.486 | 0.474 | 0.312 | 0.908
NCI-H1792 | 0.613 | 0.817 | 0.618 | 0.461 | 0.398 | 0.528 | 0.331 | 0.902 | 0.588 | 0.904 | 0.69 | 0.913 | 0.742 | 0.943 | 0.737 | 0.7 | 0.594 | 0.888 | 0.694 | 0.596
NCI-H1793 | 0.578 | 0.872 | – | 0.909 | 0.764 | 0.853 | 0.625 | 0.405 | 0.425 | 0.59 | 0.486 | 0.699 | 0.598 | 0.573 | 0.364 | 0.387 | 0.36 | 0.377 | 0.285 | 0.699
NCI-H1915 | 1.07 | 1.02 | 0.95 | 1.1 | 1.06 | – | 1.05 | 0.75 | 0.718 | 0.659 | 0.493 | 1.05 | 0.968 | 0.897 | 0.688 | 0.376 | 0.298 | 0.313 | 0.264 | 1.04
NCI-H1944 | 0.785 | 0.891 | 0.495 | 1.12 | 1.25 | 1.18 | 0.798 | 0.403 | 0.479 | 0.443 | 0.327 | 0.869 | 0.728 | 0.772 | 0.339 | 0.217 | 0.217 | 0.206 | 0.147 | 0.75
NCI-H1975 | 0.747 | 0.763 | 0.586 | 0.961 | 1.06 | 1.04 | 0.953 | 0.93 | 0.672 | 0.727 | 0.612 | 0.886 | 0.876 | 0.903 | 0.429 | 0.492 | 0.407 | 0.342 | 0.308 | 0.749
NCI-H1993 | 0.63 | 0.727 | 0.519 | 0.8 | 0.668 | 0.649 | 0.616 | 0.708 | 0.761 | 0.837 | 0.542 | 0.804 | 0.82 | 0.829 | 0.772 | 0.729 | 0.456 | 0.636 | 0.537 | 0.795
NCI-H2085 | 0.999 | 0.873 | 0.804 | 0.966 | 0.865 | 0.949 | 0.649 | 0.928 | 0.906 | 0.971 | 0.929 | 0.784 | 0.715 | 0.774 | 0.446 | 0.235 | 0.231 | 0.244 | 0.228 | 0.963
NCI-H2087 | 1.08 | 1.21 | 0.913 | 0.925 | 1.13 | 1.08 | 0.841 | 1.13 | 1.24 | 1.33 | 1.01 | 1.14 | 1.06 | 1.05 | 0.805 | 0.82 | 0.858 | 1.12 | 0.63 | 1.01
